From ChEMBL document CHEMBL4765314, “Rational design and biological evaluation of gemfibrozil modified Xenopus GLP-1 derivatives as long-acting hypoglycemic agents” (Eur J Med Chem, 2020)
Activity calls are given as the source filed them. The calls are words filed in the database; no cut-off is given here. Starred links: 1 amine or outer side, 2 acyl side, 3 side chain; linkers in the order of their positions; H or OH if unused. Positions of bridges follow the written chain, without caps; N, C: chain ends. Non-standard residues stand in square brackets, D forms with d. Residues, ends and D or L forms follow the SMILES beside them. Groups on a side chain read outwards from the residue. Chains are numbered I, II in the order given. ξ: configuration not given here. *: point of attachment. X3 = Cc1ccc(C)c(OCCCC(C)(C)C(=O)OCC(=O)NCCCCCC(=O)N[C@@H](CCC(=O)NCCCC[C@H](NO[*:1])C(=O)[*:2])C(=O)O)c1; X2 = Cc1ccc(C)c(OCCCC(C)(C)C(=O)OCC(=O)NCCCCC(NC(=O)COC(=O)C(C)(C)CCCOc2cc(C)ccc2C)C(=O)*)c1; Glycoloyl(O-gemfibrozoyl) = Cc1ccc(C)c(OCCCC(C)(C)C(=O)OCC(=O)*)c1; γGlu = O=C(O)[C@H](CCC(=O)[*:2])N[*:1]; Thr(3ξ) = CC(O)[C@H](N)C(=O)O; Aun = NCCCCCCCCCCC(=O)O; ξK = NCCCCC(N)C(=O)O; Ahx = NCCCCCC(=O)O

Tests used:
[1] = biological target: Glucagon-like peptide 1 receptor (Homo sapiens, UniProt P43220); experiment: Agonist activity at human GLP-1R expressed in HEK293 cells assessed as stimulation of cAMP accumulation incubated for 60 mins by HTRF assay; format: functional, cell-based
Sequence of Glucagon-like peptide 1 receptor (P43220 whole entry): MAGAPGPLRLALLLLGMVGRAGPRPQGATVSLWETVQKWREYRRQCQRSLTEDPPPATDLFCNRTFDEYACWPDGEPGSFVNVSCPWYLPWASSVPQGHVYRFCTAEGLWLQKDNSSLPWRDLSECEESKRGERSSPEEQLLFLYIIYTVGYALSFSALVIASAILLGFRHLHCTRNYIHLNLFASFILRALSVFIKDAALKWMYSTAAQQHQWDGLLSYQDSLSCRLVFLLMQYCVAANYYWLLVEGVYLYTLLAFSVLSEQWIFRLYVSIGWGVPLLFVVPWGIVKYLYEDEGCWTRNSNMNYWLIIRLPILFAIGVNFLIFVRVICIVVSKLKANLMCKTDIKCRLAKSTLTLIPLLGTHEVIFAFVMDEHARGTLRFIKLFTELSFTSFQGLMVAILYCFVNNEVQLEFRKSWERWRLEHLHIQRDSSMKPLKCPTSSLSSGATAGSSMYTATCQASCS

Mus musculus [2] = experiment: Hypoglycemic activity in 12 hrs fasted ICR mouse assessed as reduction in blood glucose level at 25 nmol/kg, ip dosed 30 mins before glucose challenge measured up to 120 mins by OGTT method; format: functional, organism-based; conditions: time 150.0 min
[3] = Stability in Sprague-Dawley rat plasma assessed as half life at 1000 ng/ml measured up to 48 hrs under shaking condition by LC-MS/MS analysis; format: ADME, cell-free
Albumin = Albumin (Homo sapiens, UniProt P02768); experiment: Binding affinity to human serum albumin assessed as retention factor by HPAC method; format: ADME
Sequence of Albumin (P02768 whole entry): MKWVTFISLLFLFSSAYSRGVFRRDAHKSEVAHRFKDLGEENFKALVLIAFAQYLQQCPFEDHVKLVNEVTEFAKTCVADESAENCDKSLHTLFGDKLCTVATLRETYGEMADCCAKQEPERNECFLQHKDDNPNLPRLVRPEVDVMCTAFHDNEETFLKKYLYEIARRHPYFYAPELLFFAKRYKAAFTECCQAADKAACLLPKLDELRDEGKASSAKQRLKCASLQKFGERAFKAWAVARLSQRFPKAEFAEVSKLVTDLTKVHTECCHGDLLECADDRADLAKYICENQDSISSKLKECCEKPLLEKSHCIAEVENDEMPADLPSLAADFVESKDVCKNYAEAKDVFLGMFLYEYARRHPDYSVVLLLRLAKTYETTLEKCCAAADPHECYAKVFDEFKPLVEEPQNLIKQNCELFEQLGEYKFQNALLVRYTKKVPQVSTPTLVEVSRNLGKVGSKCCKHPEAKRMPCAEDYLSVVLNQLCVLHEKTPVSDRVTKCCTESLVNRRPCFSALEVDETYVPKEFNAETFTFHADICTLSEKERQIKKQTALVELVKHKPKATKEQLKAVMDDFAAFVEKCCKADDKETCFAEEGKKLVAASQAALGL

Mus musculus [4] = experiment: Hypoglycemic activity in non-fasted db/db […] mouse assessed as reduction in blood glucose level at 25 nmol/kg, ip dosed 30 mins before glucose challenge measured up to 120 mins by OGTT method; format: functional, organism-based
[5] = Half life in Sprague-Dawley rat at 50 nmol/kg, sc measured up to 24 hrs by LC-MS/MS analysis; format: ADME, organism-based; conditions: in vivo
[6] = Tmax in Sprague-Dawley rat at 50 nmol/kg, sc measured up to 24 hrs by LC-MS/MS analysis; format: ADME, organism-based; conditions: in vivo
[7] = Stability in Sprague-Dawley rat plasma at 1000 ng/ml measured up to 48 hrs under shaking condition by LC-MS/MS analysis; format: ADME, cell-free

Stabilty [7] | Compound | EC50 [1] [nM] | Activity (Mus musculus [2]) | half-life at 1000 ng/ml [3] [h] | K (Albumin) | Activity (Mus musculus [4]) | half-life [5] [h] | Tmax [6] [h]
– | CC[C@H](C)[C@H](NC(=O)[C@H](CC(C)C)NC(=O)[C@H](Cc1c[nH]c2ccccc12)NC(=O)[C@H](CCC(=O)O)NC(=O)[C@@H](NC(=O)[C@H](Cc1ccccc1)NC(=O)[C@H](CCC(=O)O)NC(=O)C(CCCCNC(=O)CC[C@H](NC(=O)C(CCCCNC(=O)COC(=O)C(C)(C)CCCOc1cc(C)ccc1C)NC(=O)COC(=O)C(C)(C)CCCOc1cc(C)ccc1C)C(=O)O)NC(=O)[C@H](C)NC(=O)[C@H](C)NC(=O)[C@H](CCC(=O)O)NC(=O)[C@H](CCC(=O)O)NC(=O)[C@H](CCC(=O)O)NC(=O)[C@H](CC(C)C)NC(=O)[C@H](Cc1ccc(O)cc1)NC(=O)[C@H](CCC(=O)O)NC(=O)[C@@H](NC(=O)[C@@H](NC(=O)[C@H](CC(=O)O)NC(=O)[C@H](CC(N)=O)NC(=O)[C@@H](NC(=O)[C@H](Cc1ccc(O)cc1)NC(=O)[C@@H](NC(=O)CNC(=O)[C@H](CCC(=O)O)NC(=O)CNC(=O)[C@@H](N)Cc1cnc[nH]1)[C@@H](C)O)[C@@H](C)O)C(C)C)[C@@H](C)O)[C@@H](C)CC)C(=O)N[C@@H](CCCCN)C(=O)NCC(=O)N[C@@H](CCCCN)C(=O)N1CCC[C@H]1C(=O)N[C@@H](CO)C(=O)N[C@@H](CO)C(=O)NCC(=O)N[C@@H](C)C(=O)N1CCC[C@H]1C(=O)N1CCC[C@H]1C(=O)N1CCC[C@H]1C(=O)N[C@@H](C)C(=O)O (stereo partly drawn) (H-HGEGTYTNDVTEYLEEEAA[ξK]([γGlu-X2])EFIEWLIKGKPSSGAPPPA-OH) | 0.11 | Active | 30.4 | 11.8 | Active | – | –
– | CC[C@H](C)[C@H](NC(=O)[C@H](CC(C)C)NC(=O)[C@H](Cc1c[nH]c2ccccc12)NC(=O)[C@H](CCC(=O)O)NC(=O)[C@@H](NC(=O)[C@H](Cc1ccccc1)NC(=O)[C@H](CCC(=O)O)NC(=O)[C@H](CCCCNC(=O)CC[C@H](NC(=O)CCCCCNC(=O)COC(=O)C(C)(C)CCCOc1cc(C)ccc1C)C(=O)O)NC(=O)[C@H](C)NC(=O)[C@H](C)NC(=O)[C@H](CCC(=O)O)NC(=O)[C@H](CCC(=O)O)NC(=O)[C@H](CCC(=O)O)NC(=O)[C@H](CC(C)C)NC(=O)[C@H](Cc1ccc(O)cc1)NC(=O)[C@H](CCC(=O)O)NC(=O)[C@@H](NC(=O)[C@@H](NC(=O)[C@H](CC(=O)O)NC(=O)[C@H](CC(N)=O)NC(=O)[C@@H](NC(=O)[C@H](Cc1ccc(O)cc1)NC(=O)[C@@H](NC(=O)CNC(=O)[C@H](CCC(=O)O)NC(=O)CNC(=O)[C@@H](N)Cc1cnc[nH]1)[C@@H](C)O)[C@@H](C)O)C(C)C)C(C)O)[C@@H](C)CC)C(=O)N[C@@H](CCCCN)C(=O)NCC(=O)N[C@@H](CCCCN)C(=O)N1CCC[C@H]1C(=O)N[C@@H](CO)C(=O)N[C@@H](CO)C(=O)NCC(=O)N[C@@H](C)C(=O)N1CCC[C@H]1C(=O)N1CCC[C@H]1C(=O)N1CCC[C@H]1C(=O)N[C@@H](CO)C(=O)O (stereo partly drawn) (H-HGEGTYTNDV[Thr(3ξ)]EYLEEEAAK([γGlu-Ahx-Glycoloyl(O-gemfibrozoyl)])EFIEWLIKGKPSSGAPPPS-OH) | 0.083 | Active | 17.2 | 6.8 | – | – | –
– | CC[C@H](C)[C@H](NC(=O)[C@H](CC(C)C)NC(=O)[C@H](Cc1c[nH]c2ccccc12)NC(=O)[C@H](CCC(=O)O)NC(=O)[C@@H](NC(=O)[C@H](Cc1ccccc1)NC(=O)[C@H](CCC(=O)O)NC(=O)[C@H](CCCCNC(=O)CC[C@H](NC(=O)CCCCCCCCCCNC(=O)COC(=O)C(C)(C)CCCOc1cc(C)ccc1C)C(=O)O)NC(=O)[C@H](C)NC(=O)[C@H](C)NC(=O)[C@H](CCC(=O)O)NC(=O)[C@H](CCC(=O)O)NC(=O)[C@H](CCC(=O)O)NC(=O)[C@H](CC(C)C)NC(=O)[C@H](Cc1ccc(O)cc1)NC(=O)[C@H](CCC(=O)O)NC(=O)[C@@H](NC(=O)[C@@H](NC(=O)[C@H](CC(=O)O)NC(=O)[C@H](CC(N)=O)NC(=O)[C@@H](NC(=O)[C@H](Cc1ccc(O)cc1)NC(=O)[C@@H](NC(=O)CNC(=O)[C@H](CCC(=O)O)NC(=O)CNC(=O)[C@@H](N)Cc1cnc[nH]1)C(C)O)C(C)O)C(C)C)[C@@H](C)O)[C@@H](C)CC)C(=O)N[C@@H](CCCCN)C(=O)NCC(=O)N[C@@H](CCCCN)C(=O)N1CCC[C@H]1C(=O)N[C@@H](CO)C(=O)N[C@@H](CO)C(=O)NCC(=O)N[C@@H](C)C(=O)N1CCC[C@H]1C(=O)N1CCC[C@H]1C(=O)N1CCC[C@H]1C(=O)N[C@@H](CO)C(=O)O (stereo partly drawn) (H-HGEG[Thr(3ξ)]Y[Thr(3ξ)]NDVTEYLEEEAAK([γGlu-Aun-Glycoloyl(O-gemfibrozoyl)])EFIEWLIKGKPSSGAPPPS-OH) | 0.14 | Active | 21.4 | 7.6 | – | 3.7 | 2.7
Stable | CC[C@H](C)[C@H](NC(=O)[C@H](CC(C)C)NC(=O)[C@H](Cc1c[nH]c2ccccc12)NC(=O)[C@H](CCC(=O)O)NC(=O)[C@@H](NC(=O)[C@H](Cc1ccccc1)NC(=O)[C@H](CCC(=O)O)NC(=O)[C@H](CCCCNC(=O)CC[C@H](NC(=O)CCCCCNC(=O)COC(=O)C(C)(C)CCCOc1cc(C)ccc1C)C(=O)O)NOC(=O)[C@H](C)NC(=O)[C@H](C)NC(=O)[C@H](CCC(=O)O)NC(=O)[C@H](CCC(=O)O)NC(=O)[C@H](CCC(=O)O)NC(=O)[C@H](CC(C)C)NC(=O)[C@H](Cc1ccc(O)cc1)NC(=O)[C@H](CCC(=O)O)NC(=O)[C@@H](NC(=O)[C@@H](NC(=O)[C@H](CC(=O)O)NC(=O)[C@H](CC(N)=O)NC(=O)[C@@H](NC(=O)[C@H](Cc1ccc(O)cc1)NC(=O)[C@@H](NC(=O)CNC(=O)[C@H](CCC(=O)O)NC(=O)CNC(=O)[C@@H](N)Cc1cnc[nH]1)[C@@H](C)O)[C@@H](C)O)C(C)C)[C@@H](C)O)[C@@H](C)CC)C(=O)N[C@@H](CCCCN)C(=O)NCC(=O)N[C@@H](CCCCN)C(=O)O (I: H-HGEGTYTNDVTEYLEEEAA / II: EFIEWLIKGK-OH; linker I:C-II:N via X3) | 0.093 | Active | 14.2 | – | – | – | –
– | H-HGEGTYTNDVTEYLEEEAAK([γGlu-Aun-Glycoloyl(O-gemfibrozoyl)])EFIEWLIKGKPSSGAPPSKKKKKK-OH | 0.11 | Active | 20.1 | 7.3 | – | – | –
